Tests used:
Raw 264.7 cell line = assay: NO scavenging activity in LPS-treated immune cells (Griess reagent); format: cell-based; details: 24 hours; for activity at 10 µM: Mus musculus, RAW264.7, Raw 264.7, LPS 500 ng/mL, read-out: NO Scavenging Activity (%) (Mean±SD)
Method: Raw 264.7 cell line was seeded in a 48-well plate at a density of 8×10^4 cells/well, and cultured at 37°C in a DMEM medium including 10% FBS, 100 U/mL of penicillin and 100 µg/mL of streptomycin.
The medium was cultured overnight, and then replaced with a fresh medium including 10 µM of the pharmaceutical composition sensitive to nitrogen monoxide including the compound of each of Examples 1 to 30 and 500 ng/mL of LPS, and the fresh medium was cultured again for another 24 hours.
Lastly, in order to measure the amount of NO produced, the amount of NO2^- present in the cell culture medium was measured using a Griess reagent (sulfanilamide, N-1-naphthylethylenediamine dihydrochloride). Specifically, 100 µL of a Griess reagent was mixed with a mixture solution of 50 µL of the cell culture medium and 50 µL of PBS. The mixture solution was reacted for 10 minutes in a well plate, and absorbance thereof at 540 nm was measured.

[1] = DAF-2 assay of NO scavenging activity (NO donor SNAP); format: biochemical; details: DAF-2 10 µM, SNAP 100 µM, PBS, 3 hours, 37°C
Method: NO scavenging activity of the pharmaceutical composition sensitive to nitrogen monoxide including the compound according to each of Examples 1 to 22, 29 to 31, and 33 to 35 was evaluated through a DAF-2 assay.
Specifically, a reagent stock solution was made using DMSO (dimethyl sulfoxide) in order to prepare 5 mM of DAF-2, 100 mM of SNAP and 5 mM of the compound synthesized in each of the Examples, and for the reaction, the solution was added to a PBS (phosphate buffered saline) solution so that DAF-2, SNAP and the compound had final concentrations of 10 µM, 100 µM and the concentration of Table 1, respectively, followed by a reaction for 3 hours in a 37°C incubator.

[2] = DAF-2 assay of NO scavenging activity without and with H2O2 (ROS); format: biochemical; details: SNAP 100 µM, DAF-2 10 µM, 3 hours, 37°C; for NO Scavenging Activity (%) (Mean±SD) With H2O2: H2O2 1 mM
Method: The pharmaceutical composition sensitive to nitrogen monoxide including the compound according to each of Examples 23 to 28 and 32 may have scavenging activity for reactive oxygen species (ROS). NO scavenging activity of the pharmaceutical composition was evaluated through a DAF-2 assay.
Specifically, to a 100 µM solution of SNAP, the compound synthesized in each of the Examples was added at a concentration of the following Table 2, and reacted. Then 10 µM of DAF-2 was added thereto, followed by a reaction for 3 hours in a 37°C incubator.
Additionally, a stock solution of H2O2 (10 M) was added to the reaction solution so that SNAP and H2O2 had final concentrations of 100 µM and 1 mM, respectively. Then, the compound synthesized in each of the Examples was added thereto at a concentration of the following Table 11, followed by a reaction in the same manner, and NO scavenging activity was calculated by Equation 1.

Compound `C[C@@H]1CCN(C(=O)CC#N)C[C@@H]1N(C)c1ncnc2c1ccn2C(=O)Nc1ccc(O)cc1N` [Example 8, N-(2-amino-4-hydroxyphenyl)-4-(((3R,4R)-1-(2-cyanoacetyl)-4-methylpiperidin-3-yl)(methyl)amino)-7H-pyrrolo[2,3-d]pyrimidine-7-carboxamide] has an activity at 10 µM (Raw 264.7 cell line) of 72.6 ± 0.31%.

With `CC[C@@H]1CN(C(=O)NCC(F)(F)F)C[C@@H]1c1cnc2cnc3c(ccn3C(=O)Nc3cc4c(cc3N)n(C)c(=O)n4C)n12` [Example 31, N-(6-amino-1,3-dimethyl-2-oxo-2,3-dihydro-1H-benzo[d]imidazol-5-yl)-8-((3R,4S)-4-ethyl-1-((2,2,2-trifluoroethyl)carbamoyl)pyrrolidin-3-yl)-3H-imidazo[1,2-a]pyrrolo[2,3-e]pyrazine-3-carboxamide] the “NO Scavenging Activity (%) (Mean±SD)” value ([1]; compound 1 µM) was 79.61 ±3.60%, the “NO Scavenging Activity (%) (Mean±SD)” value ([1]; compound 5 µM) was 90.34 ±0.98% and the “NO Scavenging Activity (%) (Mean±SD)” value ([1]; compound 10 µM) was 92.21 ±0.98%.

With `C[C@@H]1CCN(C(=O)CC#N)C[C@@H]1N(C)c1ncnc2c1ccn2C(=O)Nc1cc(O)ccc1N` [Example 9, N-(2-amino-5-hydroxyphenyl)-4-(((3R,4R)-1-(2-cyanoacetyl)-4-methylpiperidin-3-yl)(methyl)amino)-7H-pyrrolo[2,3-d]pyrimidine-7-carboxamide] the activity at 10 µM (Raw 264.7 cell line) was 78.9 ± 0.21%.

In the case of `Cc1ccc(NC(=O)OCC(=O)C2(O)C(C)CC3C4CCC5=CC(=O)C=CC5(C)C4(F)C(O)CC32C)c(N)c1` (centres unmarked) [Example 34, 2-(9-fluoro-11,17-dihydroxy-10,13,16-trimethyl-3-oxo-6,7,8,9,10,11,12,13,14,15,16,17-dodecahydro-3H-cyclopenta[a]phenanthren-17-yl)-2-oxoethyl (2-amino-4-methylphenyl) carbamate], the “NO Scavenging Activity (%) (Mean±SD)” value ([1]; compound 10 µM) is reported as 0.76± 5.81%.

With “cyanocobalamin [Vitamin B12, reference compound]” the “NO Scavenging Activity (%) (Mean±SD)” value ([1]; compound 1 µM) was 3.18± 1.03%, the “NO Scavenging Activity (%) (Mean±SD)” value ([1]; compound 5 µM) was 8.98± 2.46% and the “NO Scavenging Activity (%) (Mean±SD)” value ([1]; compound 10 µM) was 12.37 ±3.73%. For the same compound, the “NO Scavenging Activity (%) (Mean±SD)” value ([1]; compound 100 µM) was 41.09 ±1.57% and the “NO Scavenging Activity (%) (Mean±SD)” value ([1]; compound 1,000 µM) was 99.48 ±0.95%.

With `CC1CC2C3CCC4=CC(=O)C=CC4(C)C3(F)C(O)CC2(C)C1(O)C(=O)COC(=O)Nc1ccccc1N` (centres unmarked) [Example 33, 2-(9-fluoro-11,17-dihydroxy-10,13,16-trimethyl-3-oxo-6,7,8,9,10,11,12,13,14,15,16,17-dodecahydro-3H-cyclopenta[a]phenanthren-17-yl)-2-oxoethyl (2-aminophenyl) carbamate] the “NO Scavenging Activity (%) (Mean±SD)” value ([1]; compound 1 µM) was 2.22± 4.76%, the “NO Scavenging Activity (%) (Mean±SD)” value ([1]; compound 5 µM) was 1.72± 4.28% and the “NO Scavenging Activity (%) (Mean±SD)” value ([1]; compound 10 µM) was 1.52± 10.22%.

`COc1ccc(NC(=O)N(C)CCN(C)C(=O)n2ccc3c(N(C)[C@H]4CN(C(=O)CC#N)CC[C@H]4C)ncnc32)c(N)c1` [Example 17, N-(2-(3-(2-amino-4-methoxyphenyl)-1-methylureido)ethyl)-4-(((3R,4R)-1-(2-cyanoacetyl)-4-methylpiperidin-3-yl) (methyl)amino)-N-methyl-7H-pyrrolo[2,3-d]pyrimidine-7-carboxamide] showed an activity at 10 µM (Raw 264.7 cell line) of 29.6 ± 2.95%.

In the case of `CC[C@@H]1CN(C(=O)NCC(F)(F)F)C[C@@H]1c1cnc2cnc3c(ccn3C(=O)Nc3cc4c(cc3NC(=O)OCc3ccc(B(O)O)cc3)n(C)c(=O)n4C)n12` [Example 32, (4-((((6-(8-((3R,4S)-4-ethyl-1-((2,2,2-trifluoroethyl)carbamoyl)pyrrolidin-3-yl)-3H-imidazo[1,2-a]pyrrolo[2,3-e]pyrazine-3-carboxamido)-1,3-dimethyl-2-oxo-2,3-dihydro-1H-benzo[d]imidazol-5-yl)carbamoyl)oxy)methyl)phenyl)boronic acid], the “NO Scavenging Activity (%) (Mean±SD) Without H2O2” value ([2]; compound 1 µM) is reported as 6.42± 10.86%, the “NO Scavenging Activity (%) (Mean±SD) With H2O2” value ([2]; compound 1 µM) is reported as 4.05± 3.57% and the “NO Scavenging Activity (%) (Mean±SD) Without H2O2” value ([2]; compound 5 µM) is reported as 6.84± 5.21%. The “NO Scavenging Activity (%) (Mean±SD) With H2O2” value ([2]; compound 5 µM) was 29.92 ±7.09%, the “NO Scavenging Activity (%) (Mean±SD) Without H2O2” value ([2]; compound 10 µM) was 9.26± 5.51% and the “NO Scavenging Activity (%) (Mean±SD) With H2O2” value ([2]; compound 10 µM) was 32.06 ±3.99%.

For `COc1ccc(N)c(NC(=O)n2ccc3c(N(C)[C@H]4CN(C(=O)CC#N)CC[C@H]4C)ncnc32)c1` [Example 7, N-(2-amino-5-methoxyphenyl)-4-(((3R,4R)-1-(2-cyanoacetyl)-4-methylpiperidin-3-yl)(methyl)amino)-7H-pyrrolo[2,3-d]pyrimidine-7-carboxamide], the activity at 10 µM (Raw 264.7 cell line) was 88.2 ± 0.06%.

With “N-(2-(3-(2-amino-5-hydroxyphenyl)-1-methylureido)ethyl)-4-(((1S,2R)-5-(2-cyanoacetyl)-2-methylcyclohexyl) (methyl)amino)-N-methyl-7H-pyrrolo[2,3-d]pyrimidine-7-carboxamide [Example 20]” the “NO Scavenging Activity (%) (Mean±SD)” value (Raw 264.7 cell line; 10 µM, Raw 264.7, LPS 500 ng/mL) was 59.5±0.11%.

In the case of `COc1ccc(NC(=O)n2ccc3c(N(C)[C@H]4CN(C(=O)CC#N)CC[C@H]4C)ncnc32)c(N)c1` [Example 6, N-(2-amino-4-methoxyphenyl)-4-(((3R,4R)-1-(2-cyanoacetyl)-4-methylpiperidin-3-yl)(methyl)amino)-7H-pyrrolo[2,3-d]pyrimidine-7-carboxamide], the activity at 10 µM (Raw 264.7 cell line) is reported as 68.5 ± 0.11%.

`C[C@@H]1CCN(C(=O)CC#N)C[C@@H]1N(C)c1ncnc2c1ccn2C(=O)N(C)CCN(C)C(=O)Nc1ccc(O)cc1N` [Example 19, N-(2-(3-(2-amino-4-hydroxyphenyl)-1-methylureido)ethyl)-4-(((3R,4R)-1-(2-cyanoacetyl)-4-methylpiperidin-3-yl) (methyl)amino)-N-methyl-7H-pyrrolo[2,3-d]pyrimidine-7-carboxamide] gave an activity at 10 µM (Raw 264.7 cell line) of 54.1 ± 2.51%.

Compound `C[C@@H]1CCN(C(=O)CC#N)C[C@@H]1N(C)c1ncnc2c1ccn2C(=O)N(C)CCN(C)C(=O)Nc1ccccc1N` [Example 14, N-(2-(3-(2-aminophenyl)-1-methylureido)ethyl)-4-(((3R,4R)-1-(2-cyanoacetyl)-4-methylpiperidin-3-yl)(methyl)amino)-N-methyl-7H-pyrrolo[2,3-d]pyrimidine-7-carboxamide] has an activity at 10 µM (Raw 264.7 cell line) of 46 ± 2.52%.

From patent EP4741395A1, “NOVEL COMPOUND SENSITIVE TO NITROGEN MONOXIDE AND PHARMACEUTICAL COMPOSITION COMPRISING SAME” (Omniamed Co. Ltd, priority 2023, dated 2025)
